Source: patent US20040092428A1, “Oral pharmaceuticals formulation comprising paclitaxel, derivatives and methods of administration thereof” (priority 2001, published 2004)

Target: P-glycoprotein (Homo sapiens, UniProt P08183)
Method: P-glycoprotein inhibition has been determined with an in vitro assay. […] Therefore, the initial pool of compounds screened included excipients that were acceptable for oral or IV use and included PEG in the chemical structure. Compounds were first screened for toxicity in the NIH3T3 cell line and then tested for P-gp inhibition with paclitaxel using the protocol outlined below:
Day 0: Seed cells and incubate.
Day 1: Add potential P-gp inhibitor at fixed concentration and paclitaxel at various concentrations and incubate for 2 days.
Day 3: Add MTT and extraction/lysis buffer.
Day 4: Read absorbance to measure cell growth. Calculate IC50 to determine amount of paclitaxel required for cell death
After calculations of IC50 values, relative rank order of the compounds were determined.

Chain of P-glycoprotein (P08183 whole entry): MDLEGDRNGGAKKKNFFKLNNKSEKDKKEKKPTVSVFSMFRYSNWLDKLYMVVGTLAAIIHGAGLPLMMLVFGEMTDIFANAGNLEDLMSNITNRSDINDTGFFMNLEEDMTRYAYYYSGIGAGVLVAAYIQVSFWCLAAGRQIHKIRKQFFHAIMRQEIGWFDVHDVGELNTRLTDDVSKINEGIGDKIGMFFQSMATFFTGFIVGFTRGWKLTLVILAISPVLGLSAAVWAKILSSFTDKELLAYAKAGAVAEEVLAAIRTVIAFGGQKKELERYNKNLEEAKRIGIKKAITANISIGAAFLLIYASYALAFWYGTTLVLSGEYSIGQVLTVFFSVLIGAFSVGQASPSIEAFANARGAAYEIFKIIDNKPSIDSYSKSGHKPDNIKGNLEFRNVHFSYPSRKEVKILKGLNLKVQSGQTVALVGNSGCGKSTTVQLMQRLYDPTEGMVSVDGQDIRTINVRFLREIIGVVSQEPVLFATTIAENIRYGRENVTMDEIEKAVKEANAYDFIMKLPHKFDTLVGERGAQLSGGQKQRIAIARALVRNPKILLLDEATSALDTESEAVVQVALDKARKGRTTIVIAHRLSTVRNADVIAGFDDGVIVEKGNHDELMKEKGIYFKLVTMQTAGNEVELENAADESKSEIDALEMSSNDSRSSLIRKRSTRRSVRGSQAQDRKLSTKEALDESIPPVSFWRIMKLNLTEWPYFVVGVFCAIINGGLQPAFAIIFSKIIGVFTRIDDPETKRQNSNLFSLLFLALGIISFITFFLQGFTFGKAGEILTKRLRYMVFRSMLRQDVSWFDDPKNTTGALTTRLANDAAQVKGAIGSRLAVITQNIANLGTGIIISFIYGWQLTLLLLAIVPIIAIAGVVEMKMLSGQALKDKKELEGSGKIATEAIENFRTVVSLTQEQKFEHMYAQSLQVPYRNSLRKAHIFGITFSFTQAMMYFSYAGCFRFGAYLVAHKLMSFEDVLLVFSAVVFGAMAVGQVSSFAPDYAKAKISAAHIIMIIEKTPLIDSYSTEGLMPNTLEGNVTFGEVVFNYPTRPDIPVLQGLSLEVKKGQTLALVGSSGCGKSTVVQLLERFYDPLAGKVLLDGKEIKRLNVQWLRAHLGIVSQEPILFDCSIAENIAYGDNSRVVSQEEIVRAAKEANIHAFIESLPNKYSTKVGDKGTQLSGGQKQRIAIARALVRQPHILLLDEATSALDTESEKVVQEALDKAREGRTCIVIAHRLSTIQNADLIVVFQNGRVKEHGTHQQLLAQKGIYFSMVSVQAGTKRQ

Substance	P-gp inhibition measured by an IC50 ratio
PEG-100 stearate	> 1.0
polysorbate 80	> 1.0
